Measurements reported in patent US20260109715A1, “IMIDAZOPYRIDINE DERIVATIVES WITH BICYCLIC STRUCTURE” (PUBLIC UNIVERSITY CORPORATION YOKOHAMA CITY UNIVERSITY, priority 2022, published 2026).
Read-outs that look alike come from different tables or passages of the source.

What was measured:
[1] = target: human SMG1 enzyme (Homo sapiens, UniProt Q96Q15); assay: Measurement of SMG1 kinase activity (ADP-Glo Kinase Assay); format: biochemical; settings: purified human SMG1 enzyme 5 nM, Upf1 peptide substrate, ATP 4 μM; qAC50 synonymous with IC50; read-out: Test Example 1 ADP-Glo IC50
Method in brief: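 Purified human SMG1 (5 nM) preincubated with compound (1% DMSO) 15 min at room temperature in HEPES pH 7.5 buffer with MnCl2, then reacted 60 min with Upf1 peptide (8 μg/mL) and 4 μM ATP. ADP formed measured by ADP-Glo luminescence; IC50 by 4-parameter logistic fit, normalised to DMSO (0%) and enzyme-free (−100%) wells.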

[2] = tested on: Snhg1 transcript (NMD target gene) in EMT6 murine breast cancer cell line; assay: Measurement of NMD inhibitory activity in cells (increase in Snhg1 transcript, real-time PCR); parameters: species or system mouse; settings: 6 hours treatment, concentration giving 1/2 of maximum Snhg1 fold change of positive control, read-out: Test Example 2 Cell-based Snhg1 EC50
Method in brief: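 EMT6 cells treated with serially diluted compound (2% DMSO final) for 6 h; Snhg1 transcript quantified by real-time PCR (ΔΔCT, Tbp endogenous control, untreated wells set to 1). EC50 taken as concentration giving half the maximum fold change of a known NMD inhibitor positive control.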

[3] = tested on: Snhg1 transcript in tumor tissues of mice subcutaneously implanted with EMT6 murine breast cancer cell line; assay: Evaluation of NMD inhibitory activity in vivo (Snhg1 transcript in EMT6 tumor tissue after oral administration); settings: 6 hours after administration, BALB/c mice
Experimental: The NMD inhibitory activity of a compound of the present invention or a pharmaceutically acceptable salt thereof in vivo can be measured, for example, by the method described below. Using mice subcutaneously implanted with EMT6 murine breast cancer cell line, tumor tissues 6 hours after oral administration of a test substance are excised, and the increase in Snhg1 transcript is quantified as an indicator of NMD inhibition in the tumor, in the same manner as in the in vitro method.
In this test, NMD inhibitory activity in tumor tissues was evaluated when a test substance was orally administered to mice subcutaneously implanted with EMT6 murine breast cancer cell line. As an indicator of NMD inhibitory activity, the increase in the transcript of Snhg1, an NMD target gene, was quantified. First, BALB/c mice were subcutaneously implanted with EMT6 cells (ATCC), and engraftment was confirmed 7 days later. Six hours after administration of the test substance, mice were euthanized, and the collected tumor tissues were cryopreserved. RNA was extracted from the tumor tissues using the illustra RNAspin Mini RNA Isolation kit (GE Healthcare Life Sciences). After synthesizing cDNA using the High-Capacity cDNA Reverse Transcription Kits (Applied Biosystems, 4368813), the cDNA was mixed with PrimeTime Gene Expression Master Mix (Integrated DNA Technologies) and various probes, and gene expression was quantified by QuantStudio 6 Flex (Thermo Fisher Scientific Inc.). For the probe for the Snhg1 gene, which is an NMD target, Mm.PT.58.44039547 (FAM) (Integrated DNA Technologies) was used, and for the probe for the Gapdh gene, which is an endogenous control, Mm99999915_g2 (VIC-PL) (Applied Biosystems) was used. The relative quantification of Snhg1 transcripts in each sample was calculated by the ΔΔCT method using Gapdh as an endogenous control, and the expression level of Snhg1 in each test substance administration group was calculated by setting the expression level of the Vehicle group (0.5% methylcellulose administration group) to 1.

human SMG1 enzyme, sequence (Q96Q15 whole entry): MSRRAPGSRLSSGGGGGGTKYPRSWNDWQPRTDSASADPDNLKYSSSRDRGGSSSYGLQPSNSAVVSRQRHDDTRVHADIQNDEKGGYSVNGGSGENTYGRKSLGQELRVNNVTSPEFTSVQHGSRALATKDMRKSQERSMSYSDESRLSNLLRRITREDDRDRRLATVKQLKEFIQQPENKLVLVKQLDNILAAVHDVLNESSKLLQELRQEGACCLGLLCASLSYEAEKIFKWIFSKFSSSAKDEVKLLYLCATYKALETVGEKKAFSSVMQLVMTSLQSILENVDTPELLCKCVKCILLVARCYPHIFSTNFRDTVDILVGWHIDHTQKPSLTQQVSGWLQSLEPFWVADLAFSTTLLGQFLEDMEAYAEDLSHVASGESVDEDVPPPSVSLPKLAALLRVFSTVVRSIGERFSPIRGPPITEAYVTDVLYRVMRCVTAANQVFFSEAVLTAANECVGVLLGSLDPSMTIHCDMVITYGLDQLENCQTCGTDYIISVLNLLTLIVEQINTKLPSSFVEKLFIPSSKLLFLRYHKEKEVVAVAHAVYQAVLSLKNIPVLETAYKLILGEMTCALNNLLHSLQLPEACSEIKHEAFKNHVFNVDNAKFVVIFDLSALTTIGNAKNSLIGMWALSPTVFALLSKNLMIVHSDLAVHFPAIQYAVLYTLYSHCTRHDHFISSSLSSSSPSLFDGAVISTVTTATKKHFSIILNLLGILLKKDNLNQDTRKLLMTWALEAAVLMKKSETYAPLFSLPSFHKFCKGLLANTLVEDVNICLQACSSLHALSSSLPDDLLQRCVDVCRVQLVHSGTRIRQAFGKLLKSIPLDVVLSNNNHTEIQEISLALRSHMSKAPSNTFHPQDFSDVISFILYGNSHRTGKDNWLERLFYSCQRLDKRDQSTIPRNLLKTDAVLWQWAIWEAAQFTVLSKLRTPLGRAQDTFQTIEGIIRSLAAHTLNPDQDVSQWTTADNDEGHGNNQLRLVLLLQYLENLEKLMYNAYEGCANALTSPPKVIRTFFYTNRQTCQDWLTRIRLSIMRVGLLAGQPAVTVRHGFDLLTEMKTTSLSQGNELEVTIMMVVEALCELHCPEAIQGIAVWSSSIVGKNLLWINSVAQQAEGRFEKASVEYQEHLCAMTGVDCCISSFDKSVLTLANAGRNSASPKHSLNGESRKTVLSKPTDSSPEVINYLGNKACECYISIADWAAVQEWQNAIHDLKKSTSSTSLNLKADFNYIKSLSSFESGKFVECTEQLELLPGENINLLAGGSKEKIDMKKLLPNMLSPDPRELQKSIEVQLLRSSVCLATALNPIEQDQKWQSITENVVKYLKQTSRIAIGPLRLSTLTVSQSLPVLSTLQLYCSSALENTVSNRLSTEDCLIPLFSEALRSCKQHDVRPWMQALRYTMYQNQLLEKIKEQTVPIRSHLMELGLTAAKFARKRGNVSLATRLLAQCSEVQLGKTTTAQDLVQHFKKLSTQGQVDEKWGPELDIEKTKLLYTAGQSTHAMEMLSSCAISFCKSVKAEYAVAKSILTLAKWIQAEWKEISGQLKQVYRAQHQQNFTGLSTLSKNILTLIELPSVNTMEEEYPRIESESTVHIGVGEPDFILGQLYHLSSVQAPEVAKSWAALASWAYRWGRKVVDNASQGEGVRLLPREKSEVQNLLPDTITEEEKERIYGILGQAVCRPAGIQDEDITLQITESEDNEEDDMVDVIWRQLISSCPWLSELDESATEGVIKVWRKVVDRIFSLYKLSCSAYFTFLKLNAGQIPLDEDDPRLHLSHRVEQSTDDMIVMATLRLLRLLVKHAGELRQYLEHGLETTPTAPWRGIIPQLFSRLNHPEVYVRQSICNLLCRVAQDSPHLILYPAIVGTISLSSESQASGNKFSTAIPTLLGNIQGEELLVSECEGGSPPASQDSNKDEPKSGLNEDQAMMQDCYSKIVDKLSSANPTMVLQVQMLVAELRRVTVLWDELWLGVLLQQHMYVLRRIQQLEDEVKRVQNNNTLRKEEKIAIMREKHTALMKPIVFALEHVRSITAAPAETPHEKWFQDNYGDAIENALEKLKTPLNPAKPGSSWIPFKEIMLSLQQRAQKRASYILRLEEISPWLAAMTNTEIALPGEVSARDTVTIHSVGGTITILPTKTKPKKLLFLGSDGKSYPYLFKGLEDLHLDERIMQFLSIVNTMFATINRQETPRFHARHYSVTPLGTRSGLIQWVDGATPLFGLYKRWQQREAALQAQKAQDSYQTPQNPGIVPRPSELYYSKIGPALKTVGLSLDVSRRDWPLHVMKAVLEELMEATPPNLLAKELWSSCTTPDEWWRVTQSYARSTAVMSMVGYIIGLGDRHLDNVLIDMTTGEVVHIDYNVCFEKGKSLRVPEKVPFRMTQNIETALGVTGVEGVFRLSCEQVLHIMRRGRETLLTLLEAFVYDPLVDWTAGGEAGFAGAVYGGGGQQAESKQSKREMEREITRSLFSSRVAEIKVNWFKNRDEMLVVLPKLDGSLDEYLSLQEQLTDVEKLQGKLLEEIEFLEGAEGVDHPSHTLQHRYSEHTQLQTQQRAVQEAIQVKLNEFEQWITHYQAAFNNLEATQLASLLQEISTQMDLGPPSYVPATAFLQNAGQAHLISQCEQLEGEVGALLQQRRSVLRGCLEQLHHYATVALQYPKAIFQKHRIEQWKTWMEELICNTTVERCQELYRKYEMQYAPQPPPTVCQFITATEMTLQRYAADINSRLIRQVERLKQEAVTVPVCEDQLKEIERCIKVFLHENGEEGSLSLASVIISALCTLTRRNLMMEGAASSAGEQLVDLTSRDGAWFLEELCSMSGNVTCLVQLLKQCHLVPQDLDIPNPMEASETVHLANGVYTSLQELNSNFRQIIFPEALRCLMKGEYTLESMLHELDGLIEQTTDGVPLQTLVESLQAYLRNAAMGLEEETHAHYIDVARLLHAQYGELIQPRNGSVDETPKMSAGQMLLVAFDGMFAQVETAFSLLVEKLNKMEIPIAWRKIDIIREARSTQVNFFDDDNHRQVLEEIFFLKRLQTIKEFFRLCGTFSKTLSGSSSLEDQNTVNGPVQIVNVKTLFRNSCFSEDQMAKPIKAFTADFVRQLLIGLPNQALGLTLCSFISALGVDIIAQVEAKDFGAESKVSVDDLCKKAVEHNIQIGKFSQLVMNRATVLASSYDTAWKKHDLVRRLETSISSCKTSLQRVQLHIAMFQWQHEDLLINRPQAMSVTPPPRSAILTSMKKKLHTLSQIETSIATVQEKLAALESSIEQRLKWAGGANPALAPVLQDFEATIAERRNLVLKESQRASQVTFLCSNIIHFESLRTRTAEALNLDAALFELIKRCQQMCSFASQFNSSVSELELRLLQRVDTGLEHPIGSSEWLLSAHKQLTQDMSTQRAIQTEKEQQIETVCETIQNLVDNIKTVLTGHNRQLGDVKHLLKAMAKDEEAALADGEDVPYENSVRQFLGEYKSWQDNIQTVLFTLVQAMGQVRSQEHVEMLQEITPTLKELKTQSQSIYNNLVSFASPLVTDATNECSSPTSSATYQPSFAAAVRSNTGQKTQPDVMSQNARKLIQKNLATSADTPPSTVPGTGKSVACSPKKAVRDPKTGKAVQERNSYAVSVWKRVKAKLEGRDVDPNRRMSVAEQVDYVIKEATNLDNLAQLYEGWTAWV

Row | IC50 [1] [nM] | EC50 ([2]; Mus musculus) [nM] | Compound | Snhg1 fold change ([3]; 100 mg/kg oral) | EC50 [2] [nM] | Snhg1 fold change ([3]; 10 mg/kg oral) | Snhg1 fold change ([3]; 30 mg/kg oral)
1 | 0.63 | 5.3 | CS(=O)(=O)O.[2H]C([2H])([2H])Oc1cccc(F)c1-c1nccc2[nH]c(=O)c(-c3nc4c(CC)nc(Cl)cc4[nH]3)cc12 [Example 136, 3-(6-chloro-4-ethyl-1H-imidazo[4,5-c]pyridin-2-yl)-5-{2-fluoro-6-[(2H3)methyloxy]phenyl}-1,6-naphthyridin-2(1H)-one methanesulfonate] |  |  | 4.8 | 
2 | 0.73 | 12 | CCc1nc(Cl)cc2[nH]c(-c3cc4c(-c5c(C)nn(C(F)F)c5C)nccc4[nH]c3=O)nc12.CS(=O)(=O)O [Example 148, 3-(6-chloro-4-ethyl-1H-imidazo[4,5-c]pyridin-2-yl)-5-[1-(difluoromethyl)-3,5-dimethyl-1H-pyrazol-4-yl]-1,6-naphthyridin-2(1H)-one methanesulfonate] |  |  | 5.8 | 
3 | 0.95 | 19 | COc1cc(OC)c(-c2nccc3[nH]c(=O)c(-c4nc5c(C)nc(Cl)cc5[nH]4)cc23)cn1.CS(=O)(=O)O [Example 144, 3-(6-chloro-4-methyl-1H-imidazo[4,5-c]pyridin-2-yl)-5-(4,6-dimethoxypyridin-3-yl)-1,6-naphthyridin-2(1H)-one methanesulfonate] |  |  |  | 4.8
4 | 5.1 | 80 | C[C@@H]1COCCN1c1nc(Cl)cc2[nH]c(-c3cc4cnccc4[nH]c3=O)nc12.Cc1ccc(S(=O)(=O)O)cc1 [Example 117, 3-{6-chloro-4-[(3R)-3-methylmorpholin-4-yl]-1H-imidazo[4,5-c]pyridin-2-yl}-1,6-naphthyridin-2(1H)-one p-toluenesulfonate] |  |  | 5.1 | 
5 | 0.67 | 3.9 | CCc1nc(Cl)cc2[nH]c(-c3cc4c(-c5cnc(C(C)(F)F)cc5OC)nccc4[nH]c3=O)nc12.CS(=O)(=O)O [Example 147, 3-(6-chloro-4-ethyl-1H-imidazo[4,5-c]pyridin-2-yl)-5-[6-(1,1-difluoroethyl)-4-methoxypyridin-3-yl]-1,6-naphthyridin-2(1H)-one methanesulfonate] |  |  | 9.5 | 
6 | 1.6 | 29 | CS(=O)(=O)O.O=c1[nH]c2ccncc2cc1-c1nc2c(C3CCOCC3)nc(Cl)cc2[nH]1 [Example 126, 3-[6-chloro-4-(tetrahydro-2H-pyran-4-yl)-1H-imidazo[4,5-c]pyridin-2-yl]-1,6-naphthyridin-2(1H)-one methanesulfonate] |  |  |  | 4.1
7 | 1.4 | 46 | Cc1nccc2[nH]c(=O)c(-c3nc4c(N5C[C@H](O)C[C@H]5C)nc(Cl)cc4[nH]3)cc12 [Example 121, 3-{6-chloro-4-[(2R,4R)-4-hydroxy-2-methylpyrrolidin-1-yl]-1H-imidazo[4,5-c]pyridin-2-yl}-5-methyl-1,6-naphthyridin-2(1H)-one methanesulfonate] |  |  |  | 

The next lines start with the compound.

Row | Compound | IC50 [1] [nM] | EC50 ([2]; Mus musculus) [nM] | Snhg1 fold change ([3]; 100 mg/kg oral) | EC50 [2] [nM] | Snhg1 fold change ([3]; 10 mg/kg oral) | Snhg1 fold change ([3]; 30 mg/kg oral)
8 | CC1(C)CC(O)(c2nc(Cl)cc3[nH]c(-c4cc5cnccc5[nH]c4=O)nc23)CCO1 (stereo not drawn) [Example 19, 3-[6-chloro-4-(4-hydroxy-2,2-dimethyltetrahydro-2H-pyran-4-yl)-1H-imidazo[4,5-c]pyridin-2-yl]-1,6-naphthyridin-2(1H)-one] | 2.4 | 111 | 7.5 |  |  | 
9 | 3-(6-chloro-4-methyl-1H-imidazo[4,5-c]pyridin-2-yl)-5-(2-fluoro-6-methoxyphenyl)-1,6-naphthyridin-2(1H)-one methanesulfonate [Example 130] | 1.6 |  |  | 11 | 9.2 | 
10 | COc1cccc(F)c1-c1nccc2[nH]c(=O)c(-c3nc4cnc(Cl)cc4[nH]3)cc12 [Example 35, 3-(6-chloro-1H-imidazo[4,5-c]pyridin-2-y1)-5-(2-fluoro-6-methoxyphenyl)-1,6-naphthyridin-2(1H)-one] | 1.4 | 40 |  |  | 4.6 | 
11 | [2H]C([2H])([2H])Oc1ccccc1-c1nccc2[nH]c(=O)c(-c3nc4c(C)nc(Cl)cc4[nH]3)cc12 [Example 26, 3-(6-chloro-4-methyl-1H-imidazo[4,5-c]pyridin-2-yl)-5-{2-[(^2H3)methyloxy]phenyl}-1,6-naphthyridin-2(1H)-one] | 0.99 | 28 |  |  | 12 | 
12 | [2H]C([2H])([2H])Oc1ccccc1-c1nccc2[nH]c(=O)c(-c3nc4c(C(C)C)nc(Cl)cc4[nH]3)cc12 [Example 38, 3-[6-chloro-4-(propan-2-yl)-1H-imidazo[4,5-c]pyridin-2-yl]-5-{2-[(^2H3)methyloxy]phenyl}-1,6-naphthyridin-2(1H)-one] | 1.7 | 10 |  |  |  | 9.2
13 | COc1ncc(-c2nccc3[nH]c(=O)c(-c4nc5c(NCC(F)F)nc(Cl)cc5[nH]4)cc23)c(OC)n1 [Example 72, 3-(6-chloro-4-[(2,2-difluoroethyl)amino]-1H-imidazo[4,5-c]pyridin-2-yl)-5-(2,4-dimethoxypyrimidin-5-yl)-1,6-naphthyridin-2(1H)-one] | 0.81 | 4.5 |  |  |  | 4.3
14 | O=c1[nH]c2ccnc(C3CCCCN(S(=O)(=O)c4ccccc4)C3)c2cc1-c1nc2cnc(Cl)cc2[nH]1 (stereo not drawn) [Example 106, 3-(6-chloro-1H-imidazo[4,5-c]pyridin-2-yl)-5-[1-(phenylsulfonyl)azepan-3-yl]-1,6-naphthyridin-2(1H)-one] | 2.5 | 87 |  |  |  | 
15 | COc1cc(C2CC2)ncc1-c1nccc2[nH]c(=O)c(-c3nc4cnc(Cl)cc4[nH]3)cc12 [Example 62, 3-(6-chloro-1H-imidazo[4,5-c]pyridin-2-yl)-5-(6-cyclopropyl-4-methoxypyridin-3-yl)-1,6-naphthyridin-2(1H)-one] | 0.95 | 16 |  |  |  | 
16 | CN1CCCN(C)c2nc(Cl)cc3[nH]c(nc23)-c2cc3c(nccc3[nH]c2=O)-c2ccc(cc2F)C1=O [Example 107, 7-Chloro-18-fluoro-10,14-dimethyl-3,8,10,14,21,25,31-heptaazahexacyclo[18.6.2.2^16,19.1^2,5.0^4,9.0^24,28]hentriacont-1(27),2,4,6,8,16,18,20(28),21,23,29-undecaen-15,26-dione] | 0.64 | 30 |  |  |  | 
17 | [2H]C([2H])([2H])Oc1ccccc1-c1nccc2[nH]c(=O)c(-c3nc4c(N=S(C)(C)=O)nc(Cl)cc4[nH]3)cc12 [Example 44, 3-(6-chloro-4-{[dimethyl(oxide)-A6-sulfanylidene]amino}-1H-imidazo[4,5-c]pyridin-2-yl)-5-{2-[(^2H3)methyloxy]phenyl}-1,6-naphthyridin-2(1H)-one] | 0.5 | 54 |  |  |  | 
18 | COc1cc(C)ncc1-c1nccc2[nH]c(=O)c(-c3nc4c(C)nc(Cl)cc4[nH]3)cc12 [Example 59, 3-(6-chloro-4-methyl-1H-imidazo[4,5-c]pyridin-2-yl)-5-(4-methoxy-6-methylpyridin-3-yl)-1,6-naphthyridin-2(1H)-one] | 0.52 | 41 |  |  |  | 
19 | CC(C)(O)c1cccc(-c2nccc3[nH]c(=O)c(-c4nc5cnc(Cl)cc5[nH]4)cc23)c1 [Example 46, 3-(6-chloro-1H-imidazo[4,5-c]pyridin-2-yl)-5-[3-(2-hydroxypropan-2-yl)phenyl]-1,6-naphthyridin-2(1H)-one] | 1.8 | 115 |  |  |  | 
20 | Cc1nc(Cl)cc2[nH]c(-c3cc4c(-c5c(F)cccc5C#N)nccc4[nH]c3=O)nc12 [Example 45, 2-[3-(6-chloro-4-methyl-1H-imidazo[4,5-c]pyridin-2-yl)-2-oxo-1,2-dihydro-1,6-naphthyridin-5-yl]-3-fluorobenzonitrile] | 0.8 | 11 |  |  |  | 
21 | Cc1c(-c2nccc3[nH]c(=O)c(-c4nc5cnc(Cl)cc5[nH]4)cc23)c(C(F)F)nn1C(C)C [Example 94, 3-(6-chloro-1H-imidazo[4,5-c]pyridin-2-yl)-5-[3-(difluoromethyl)-5-methyl-1-(propan-2-yl)-1H-pyrazol-4-yl]-1,6-naphthyridin-2(1H)-one] | 1.5 | 60 |  |  |  | 
